Molecules are shown by their SMILES. Calls of active or inactive are those of the source. The rule behind the calls is not given here.

The values that follow come from ChEMBL document CHEMBL4507270 (2021).

For experiment [1], the target named is Serine/threonine-protein kinase 10 (Homo sapiens, UniProt O94804). In words: NanoBRET assay (SGC Frankfurt) with STK10. A general note: BRET reads energy transfer from a luciferase to a nearby fluorophore.
Experiment [2] has as its target T1, Angiopoietin-1 receptor (Homo sapiens, UniProt Q02763). In words: KINOMEScan (DiscoveRx Corp) with TEK.
The target of experiment [3] is D(1B) dopamine receptor (Homo sapiens) (UniProt P21918). Conditions: Compound concentration 10.0 uM.
In experiment [4] the target is GABA-A receptor; anion channel (Rattus norvegicus) (UniProt O09028+P15431+P18506+P18508+P19969+P20236+P23574+P23576+P28471+P28473+P30191+P62813+P63079+P63138+Q91ZM7+Q9ES14). Conditions: Compound concentration 10.0 uM.
Experiment [5] concerns the target Epithelial discoidin domain-containing receptor 1 (Homo sapiens, UniProt Q08345). The experiment is described as follows: Inhibition of DDR1 at compound concentration of 10.0 uM using the ScanMax (DiscoverX).
In experiment [6] the target is T2, Discoidin domain-containing receptor 2 (Homo sapiens, UniProt Q16832).
T2 sequence (Q16832 whole entry): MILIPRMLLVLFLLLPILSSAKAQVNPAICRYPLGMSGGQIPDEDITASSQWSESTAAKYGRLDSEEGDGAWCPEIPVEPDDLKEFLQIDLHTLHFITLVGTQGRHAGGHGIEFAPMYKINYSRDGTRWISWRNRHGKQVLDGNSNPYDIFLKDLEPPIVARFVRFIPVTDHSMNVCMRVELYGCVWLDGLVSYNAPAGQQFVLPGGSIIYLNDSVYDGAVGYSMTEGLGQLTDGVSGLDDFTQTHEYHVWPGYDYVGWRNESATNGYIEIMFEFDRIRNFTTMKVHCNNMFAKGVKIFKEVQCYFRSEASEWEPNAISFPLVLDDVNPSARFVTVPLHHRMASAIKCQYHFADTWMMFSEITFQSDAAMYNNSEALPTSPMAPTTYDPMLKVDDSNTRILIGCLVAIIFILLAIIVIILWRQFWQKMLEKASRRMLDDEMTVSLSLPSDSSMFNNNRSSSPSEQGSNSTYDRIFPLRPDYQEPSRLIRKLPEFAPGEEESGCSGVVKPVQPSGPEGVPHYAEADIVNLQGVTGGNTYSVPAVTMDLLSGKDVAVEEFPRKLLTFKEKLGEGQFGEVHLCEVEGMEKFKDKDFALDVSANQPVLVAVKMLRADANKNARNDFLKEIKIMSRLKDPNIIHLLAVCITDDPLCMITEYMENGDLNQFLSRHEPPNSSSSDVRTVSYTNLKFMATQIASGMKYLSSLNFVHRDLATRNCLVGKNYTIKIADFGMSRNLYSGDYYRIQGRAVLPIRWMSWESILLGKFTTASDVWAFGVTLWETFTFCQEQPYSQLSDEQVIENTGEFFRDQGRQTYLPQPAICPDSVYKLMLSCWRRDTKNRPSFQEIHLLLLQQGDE
In words: Inhibition of DDR2 at compound concentration of 10.0 uM using the ScanMax (DiscoverX).

For another experiment, the target named is Mu-type opioid receptor (Homo sapiens, UniProt P35372). The experiment is described as follows: GPCRScan assay: inhibition of MOR. Also noted: radioligand conc. used [nm] 1.0 – 2.0, parental cells stable HEK.
Experiment [7] concerns the target 5-hydroxytryptamine receptor 6 (Homo sapiens) (UniProt P50406). The following applies: Compound concentration 10.0 uM.
The target in experiment [8] is T3, Tyrosine-protein kinase receptor Tie-1 (Homo sapiens, UniProt P35590). The experiment is described as follows: NanoBRET assay (SGC Frankfurt) with TIE1.
In experiment [9] the target is 5-hydroxytryptamine receptor 2B (Homo sapiens, UniProt P41595). In words: GPCRScan assay: inhibition of 5-HT2B. Set-up: radioligand conc. used [nm] 1.0 – 2.0, parental cells stable HEK.
Another experiment addresses D(2) dopamine receptor (Homo sapiens, UniProt P14416). In words: GPCRScan assay: inhibition of D2. Also noted: radioligand conc. used [nm] 0.4 – 1.0, parental cells stable fibroblast.
The target in experiment [10] is 5-hydroxytryptamine receptor 2C (Homo sapiens, UniProt P28335). The experiment is described as follows: GPCRScan assay: inhibition of 5-HT2C. Set-up: radioligand conc. used [nm] 1.0 – 2.5, parental cells HEK T.
Experiment [11] concerns the target Delta-type opioid receptor (Homo sapiens, UniProt P41143). The experiment is described as follows: GPCRScan assay: inhibition of DOR. Also noted: radioligand conc. used [nm] 1.0 – 2.0, parental cells stable HEK.
Experiment [12] deals with T3, Tyrosine-protein kinase receptor Tie-1. The following applies: Compound concentration 1000.0 nM.
The target in experiment [13] is Sodium-dependent noradrenaline transporter (Homo sapiens, UniProt P23975). The experiment is described as follows: GPCRScan assay: inhibition of NET. Set-up: radioligand conc. used [nm] 1.3 – 5.0, parental cells stable HEK.
For experiment [14], the target named is Fibroblast growth factor receptor 3 (Homo sapiens, UniProt P22607). In words: Bayer in-house kinase assay with […].
For experiment [15], the target named is Histamine H1 receptor (Homo sapiens) (UniProt P35367). Conditions: Compound concentration 10.0 uM.
Experiment [16] has as its target Beta-3 adrenergic receptor (Homo sapiens, UniProt P13945). The experiment is described as follows: GPCRScan assay: inhibition of Beta3. Set-up: radioligand conc. used [nm] 0.2 – 0.5, parental cells HEK Flp-In.
The target in experiment [17] is Platelet-derived growth factor receptor beta (Homo sapiens, UniProt P09619). In words: Bayer in-house kinase assay with PDGFRB.
For experiment [18], the target named is Vascular endothelial growth factor receptor 3 (Homo sapiens, UniProt P35916). In words: Bayer in-house kinase assay with FLT4.
The target in experiment [19] is Histamine H4 receptor (Homo sapiens) (UniProt Q9H3N8). The following applies: Compound concentration 10.0 uM.
In experiment [20] the target is Histamine H3 receptor (Homo sapiens) (UniProt Q9Y5N1). The following applies: Compound concentration 10.0 uM.
Experiment [21] deals with D(3) dopamine receptor (Homo sapiens) (UniProt P35462). The following applies: Compound concentration 10.0 uM.
The target in experiment [22] is T1, Angiopoietin-1 receptor. In words: Bayer in-house kinase assay with TEK.
Experiment [23] has as its target Vascular endothelial growth factor receptor 2 (Homo sapiens, UniProt P35968). The experiment is described as follows: KINOMEScan (DiscoveRx Corp) with KDR.

T3 sequence (P35590 whole entry): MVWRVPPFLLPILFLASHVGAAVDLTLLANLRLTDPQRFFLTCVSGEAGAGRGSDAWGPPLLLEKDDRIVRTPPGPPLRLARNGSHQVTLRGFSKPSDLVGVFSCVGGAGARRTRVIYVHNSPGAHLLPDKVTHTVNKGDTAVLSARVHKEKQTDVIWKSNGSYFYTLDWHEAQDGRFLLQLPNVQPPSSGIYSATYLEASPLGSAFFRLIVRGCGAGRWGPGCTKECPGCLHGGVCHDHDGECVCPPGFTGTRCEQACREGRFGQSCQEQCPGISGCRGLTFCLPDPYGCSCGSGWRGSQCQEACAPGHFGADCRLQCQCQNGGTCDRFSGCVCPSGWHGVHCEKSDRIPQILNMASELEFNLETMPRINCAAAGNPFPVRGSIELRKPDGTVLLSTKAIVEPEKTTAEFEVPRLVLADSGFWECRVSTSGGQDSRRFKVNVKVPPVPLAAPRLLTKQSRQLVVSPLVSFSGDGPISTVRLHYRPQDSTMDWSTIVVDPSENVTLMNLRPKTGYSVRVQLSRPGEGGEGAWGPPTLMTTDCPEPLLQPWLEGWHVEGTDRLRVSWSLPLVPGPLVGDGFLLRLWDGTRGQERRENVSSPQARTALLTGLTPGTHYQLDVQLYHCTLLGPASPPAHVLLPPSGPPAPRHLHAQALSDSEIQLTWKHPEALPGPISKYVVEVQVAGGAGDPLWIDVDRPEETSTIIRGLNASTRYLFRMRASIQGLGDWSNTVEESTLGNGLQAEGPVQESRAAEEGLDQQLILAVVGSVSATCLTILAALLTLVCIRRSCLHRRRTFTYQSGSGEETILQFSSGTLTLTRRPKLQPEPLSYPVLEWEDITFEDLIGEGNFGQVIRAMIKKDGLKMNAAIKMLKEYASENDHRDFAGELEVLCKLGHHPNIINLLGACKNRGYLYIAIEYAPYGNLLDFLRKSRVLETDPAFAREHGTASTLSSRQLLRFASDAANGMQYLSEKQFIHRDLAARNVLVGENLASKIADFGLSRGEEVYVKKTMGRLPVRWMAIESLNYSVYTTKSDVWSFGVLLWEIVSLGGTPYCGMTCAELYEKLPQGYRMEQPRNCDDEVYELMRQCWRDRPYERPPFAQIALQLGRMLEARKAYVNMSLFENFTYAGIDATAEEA
Chain of Beta-3 adrenergic receptor (P13945 whole entry): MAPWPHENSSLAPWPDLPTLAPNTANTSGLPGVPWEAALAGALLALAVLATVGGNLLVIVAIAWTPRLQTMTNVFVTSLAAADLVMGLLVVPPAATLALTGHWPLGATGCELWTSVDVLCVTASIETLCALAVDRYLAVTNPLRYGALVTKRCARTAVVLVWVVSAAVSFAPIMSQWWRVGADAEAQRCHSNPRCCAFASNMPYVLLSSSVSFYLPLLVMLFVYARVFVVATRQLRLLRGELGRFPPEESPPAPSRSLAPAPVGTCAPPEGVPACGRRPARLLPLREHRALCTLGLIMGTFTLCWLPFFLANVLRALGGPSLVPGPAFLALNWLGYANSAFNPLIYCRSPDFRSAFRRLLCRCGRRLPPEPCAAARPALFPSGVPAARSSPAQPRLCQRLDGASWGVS
T1 sequence (Q02763 whole entry): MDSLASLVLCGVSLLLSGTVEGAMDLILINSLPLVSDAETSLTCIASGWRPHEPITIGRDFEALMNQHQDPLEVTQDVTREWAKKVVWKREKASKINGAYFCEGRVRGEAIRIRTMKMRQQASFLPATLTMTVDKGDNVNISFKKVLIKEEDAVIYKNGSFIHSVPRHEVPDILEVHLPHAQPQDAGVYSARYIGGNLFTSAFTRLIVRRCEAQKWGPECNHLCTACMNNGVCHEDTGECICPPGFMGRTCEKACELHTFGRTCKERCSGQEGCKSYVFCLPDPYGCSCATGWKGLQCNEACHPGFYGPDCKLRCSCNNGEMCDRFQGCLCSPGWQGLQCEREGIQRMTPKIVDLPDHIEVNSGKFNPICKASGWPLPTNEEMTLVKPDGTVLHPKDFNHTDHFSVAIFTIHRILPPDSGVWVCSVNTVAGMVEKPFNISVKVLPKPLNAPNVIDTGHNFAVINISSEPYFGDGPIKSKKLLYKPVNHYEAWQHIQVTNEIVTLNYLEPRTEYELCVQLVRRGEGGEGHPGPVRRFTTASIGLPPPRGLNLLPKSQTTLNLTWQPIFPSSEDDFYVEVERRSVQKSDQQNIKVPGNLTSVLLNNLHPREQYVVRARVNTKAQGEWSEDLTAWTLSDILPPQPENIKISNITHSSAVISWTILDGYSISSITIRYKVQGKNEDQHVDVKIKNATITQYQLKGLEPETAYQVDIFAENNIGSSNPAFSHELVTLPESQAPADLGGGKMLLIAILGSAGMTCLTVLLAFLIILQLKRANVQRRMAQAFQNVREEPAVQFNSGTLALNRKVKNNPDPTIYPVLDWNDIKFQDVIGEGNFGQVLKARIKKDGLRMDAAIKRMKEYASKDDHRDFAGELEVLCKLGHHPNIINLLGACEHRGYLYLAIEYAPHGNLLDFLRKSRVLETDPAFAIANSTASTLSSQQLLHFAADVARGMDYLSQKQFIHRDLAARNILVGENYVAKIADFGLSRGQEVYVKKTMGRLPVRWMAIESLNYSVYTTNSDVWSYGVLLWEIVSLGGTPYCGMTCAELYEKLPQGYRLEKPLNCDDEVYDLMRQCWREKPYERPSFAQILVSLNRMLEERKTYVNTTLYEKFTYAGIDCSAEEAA
Chain of Serine/threonine-protein kinase 10 (O94804 whole entry): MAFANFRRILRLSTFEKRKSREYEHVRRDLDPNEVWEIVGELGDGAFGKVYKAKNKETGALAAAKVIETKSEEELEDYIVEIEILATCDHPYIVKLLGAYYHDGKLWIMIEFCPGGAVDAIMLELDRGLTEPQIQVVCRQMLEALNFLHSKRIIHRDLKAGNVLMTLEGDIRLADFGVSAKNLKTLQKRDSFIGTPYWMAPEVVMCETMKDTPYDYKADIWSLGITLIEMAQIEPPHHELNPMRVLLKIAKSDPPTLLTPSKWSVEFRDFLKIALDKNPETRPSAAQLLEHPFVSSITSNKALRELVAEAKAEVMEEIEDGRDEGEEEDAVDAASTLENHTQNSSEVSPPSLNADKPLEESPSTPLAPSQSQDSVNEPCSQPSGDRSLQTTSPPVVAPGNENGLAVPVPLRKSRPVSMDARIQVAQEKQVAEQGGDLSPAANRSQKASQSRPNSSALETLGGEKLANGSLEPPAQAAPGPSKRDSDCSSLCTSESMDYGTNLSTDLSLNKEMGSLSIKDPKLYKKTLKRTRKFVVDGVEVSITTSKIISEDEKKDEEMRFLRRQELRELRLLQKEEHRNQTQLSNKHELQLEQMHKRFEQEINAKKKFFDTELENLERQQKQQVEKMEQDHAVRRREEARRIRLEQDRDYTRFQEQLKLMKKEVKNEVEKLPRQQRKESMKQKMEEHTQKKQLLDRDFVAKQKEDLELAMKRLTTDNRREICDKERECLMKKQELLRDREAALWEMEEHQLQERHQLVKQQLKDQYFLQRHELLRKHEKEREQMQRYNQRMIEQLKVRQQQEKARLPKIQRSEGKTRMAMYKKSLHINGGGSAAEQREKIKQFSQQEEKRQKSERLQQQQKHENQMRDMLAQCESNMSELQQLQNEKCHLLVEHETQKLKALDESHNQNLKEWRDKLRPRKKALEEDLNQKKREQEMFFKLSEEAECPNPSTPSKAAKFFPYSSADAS
Chain of Vascular endothelial growth factor receptor 2 (P35968 whole entry): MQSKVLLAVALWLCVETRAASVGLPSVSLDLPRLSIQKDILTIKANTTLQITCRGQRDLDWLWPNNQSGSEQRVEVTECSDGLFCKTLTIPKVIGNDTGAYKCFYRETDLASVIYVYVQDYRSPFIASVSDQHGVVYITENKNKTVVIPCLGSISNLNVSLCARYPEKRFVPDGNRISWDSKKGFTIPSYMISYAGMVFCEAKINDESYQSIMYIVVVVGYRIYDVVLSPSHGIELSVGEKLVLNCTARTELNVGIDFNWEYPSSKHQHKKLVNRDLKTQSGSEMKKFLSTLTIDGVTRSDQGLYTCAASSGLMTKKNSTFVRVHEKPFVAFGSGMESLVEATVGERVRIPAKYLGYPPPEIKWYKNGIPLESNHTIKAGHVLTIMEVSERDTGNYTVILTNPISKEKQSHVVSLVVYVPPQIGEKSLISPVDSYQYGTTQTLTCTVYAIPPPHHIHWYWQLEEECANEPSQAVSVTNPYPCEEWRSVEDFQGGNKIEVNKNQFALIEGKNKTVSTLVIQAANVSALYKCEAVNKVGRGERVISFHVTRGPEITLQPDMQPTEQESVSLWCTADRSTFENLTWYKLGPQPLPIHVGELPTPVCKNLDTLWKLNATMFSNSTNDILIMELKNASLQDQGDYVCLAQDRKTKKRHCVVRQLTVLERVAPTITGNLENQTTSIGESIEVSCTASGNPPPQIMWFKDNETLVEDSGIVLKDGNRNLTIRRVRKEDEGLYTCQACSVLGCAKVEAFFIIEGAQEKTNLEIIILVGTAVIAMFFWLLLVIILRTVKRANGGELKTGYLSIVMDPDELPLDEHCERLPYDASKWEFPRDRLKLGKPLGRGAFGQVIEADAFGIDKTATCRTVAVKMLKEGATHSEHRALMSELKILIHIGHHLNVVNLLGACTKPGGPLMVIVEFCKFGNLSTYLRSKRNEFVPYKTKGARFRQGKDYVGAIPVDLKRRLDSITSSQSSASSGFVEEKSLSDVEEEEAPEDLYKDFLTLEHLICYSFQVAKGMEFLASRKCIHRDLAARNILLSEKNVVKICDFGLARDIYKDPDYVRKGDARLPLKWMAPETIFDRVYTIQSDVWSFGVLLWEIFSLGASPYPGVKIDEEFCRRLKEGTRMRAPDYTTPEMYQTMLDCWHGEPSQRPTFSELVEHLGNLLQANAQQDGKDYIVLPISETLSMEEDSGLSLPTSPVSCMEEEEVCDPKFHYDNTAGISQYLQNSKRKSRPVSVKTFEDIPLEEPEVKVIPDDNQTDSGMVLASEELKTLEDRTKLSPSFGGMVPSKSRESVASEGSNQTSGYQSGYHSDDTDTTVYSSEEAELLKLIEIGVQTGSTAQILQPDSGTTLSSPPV

The EC50 is the concentration that produces a half-maximal response. A high value points to a need for much substance. For orientation: IC50 means the concentration that gives 50% inhibition. The term Kd denotes the constant that tells how readily two partners part at equilibrium. Usually inhibition stands for the drop in the measured response relative to a control, in per cent. One may read the residual activity as the share of the control activity or signal that is left under treatment. `Cc1cc(NC(=O)c2cccc(S(F)(F)(F)(F)F)c2)cc(-n2ccn3nc(-c4cccnc4)cc23)c1` [BAY-309]: the results for the EC50 in experiment [1] and in [8] were 3.2 µM (not active) and 2.6 µM (not active), respectively. For the same compound, the IC50 in [1] is > 10 µM (not active); in experiment [8], 0.13 µM (not active). For the same compound, the Kd at Angiopoietin-1 receptor [2] is > 20 µM (not active); in [5] it was 0.0021 µM (active); in experiment [6], 0.063 µM (not active). Besides, the inhibition in [3] was 34.9%; in experiment [4] it was 33.3%; in experiment [7] it was 5.64%. In addition, the Ki was 6.99 µM at Mu-type opioid receptor; 2.15 µM in experiment [9]; 10 µM at D(2) dopamine receptor; 4.86 µM in experiment [10]; 1.73 µM in experiment [11]; 10 µM in experiment [13]. In [12], the residual activity was 34.2%.
`Cc1cc(C)c(-n2ccn3nc(-c4cccnc4)cc23)cc1NC(=O)c1cc(C#N)cc(S(F)(F)(F)(F)F)c1` [BAY-826]: the IC50 in experiment [14] is > 10 µM (not active); in experiment [17], > 20 µM (not active); in [18], 0.44 µM (not active); at Angiopoietin-1 receptor [22], 0.00045 µM (active). Further, the inhibition in experiment [15] is 25.3%; in experiment [19] it was 11.9%; in [20] it was -5.88%; in experiment [21], -5.85%. For the same compound, the Ki is 7.1 µM in experiment [16] (read-out: Ki) and 6.68 µM in experiment [16] (read-out: pKi (converted)). Moreover, the Kd in experiment [23] was 1.6 µM (not active).
